What was measured:
[1] = in particular in clear aqueous applications; cited from earlier work
[2] = Impression of sweetness of a sugar-reduced test solution (5% sucrose + compound against 6% sucrose); assay type: in vivo
Text: In order to quantify the retention of an impression of sweetness when replacing a proportion of sucrose with a small amount of 4-hydroxydihydrochalcones of the formula (I) being used in accordance with the invention, the sweetness (a) of a solution containing 6 wt. % of sucrose as compared with a solution containing 5 wt. % of sucrose and (b) or (c) of a solution containing 6 wt. % of sucrose as compared with a solution containing 5% of sucrose and a certain concentration of a 4-hydroxydihydrochalcone being used according to the invention was determined by a group of experts (classification 0 [not sweet] to 10 [extremely sweet]). Evaluation was performed by calculating the enhancement (in %) of the impression of sweetness from the average values of the estimates for the solutions of 6% sucrose (second column) and for the solutions containing 5% sucrose and optionally the 4-hydroxydihydrochalcone of the formula (I) being used according to the invention (third column).

[3] = Enhancing the impression of sweetness of a solution containing a sweet-tasting substance (expert panel rating), sucrose; assay type: in vivo; conditions: 30 ppm substance, 5%
Procedure: (§1) In order to quantify the enhancement of an impression of sweetness by adding 4-hydroxydihydrochalcones to be used according to the invention, the sweetness of a solution containing a sweet-tasting substance and of samples containing the same amount of sweet-tasting substance and in addition a certain concentration of the 4-hydroxydihydrochalcones of the formula (I) to be used according to the invention was determined by a group of experts (classification 0 [extremely weaklysweet] to 10 [extremely sweet]). Evaluation was performed by calculating the enhancement (in %) of the impression of sweetness from the average values of the ratings for the solution containing the sweet-tasting substance (a) and for the solution containing the sweet-tasting substance and 4-dydroxydihydrochalcones (b).

[4] = Enhancing the impression of sweetness of a solution containing a sweet-tasting substance (expert panel rating), glycerine; assay type: in vivo; conditions: 30 ppm substance, 5%
Procedure: as §1

Structure (SMILES) | solubility [1] | total number of tasters / number of tasters who felt the 5 wt. % sucrose test solution with substance sweeter than 6 wt. % sucrose ([2]; 5% sucrose + 30 ppm substance) | % enhancement of the impression of sweetness ([2]; 5% sucrose + 30 ppm substance against 6% sucrose) | Impression of sweetness (1-10) ([2]; 5% sucrose + 30 ppm substance, mean ± standard deviation) | total number of tasters / number of tasters who felt that test solution (b) was sweeter than test solution (a) [3] | % enhancement of the impression of sweetness ([3]; (b) with against (a) without) | Impression of sweetness (1-10) b) with ([3]; mean ± standard deviation) | total number of tasters / number of tasters who felt that test solution (b) was sweeter than test solution (a) [4] | % enhancement of the impression of sweetness ([4]; (b) with against (a) without) | Impression of sweetness (1-10) b) with ([4]; mean ± standard deviation)
COc1ccc(C2CC(=O)c3c(O)cc(O)cc3O2)cc1O (stereo not shown) [hesperetin] | low solubility | – | – | – | – | – | – | – | – | –
O=C(CCc1ccc(O)cc1)c1c(O)cc(O)cc1O [compound 4, 3-(4-hydroxyphenyl)-1-(2,4,6-trihydroxyphenyl)propan-1-one] | – | 16/7 | −4.9% | 6.1 ± 1.4 | 16/14 | +31% | 7.4 ± 1.4 | 16/11 | +45% | 4.4 ± 2.1
